These results are taken from patent publication US12691100B2, “NMT inhibitor treatment of a senescence-associated disease or disorder of the liver” (Imperial College Innovations Limited, priority 2020, dated 2026).

In assay [1] the test system is IMR90 ER:RAS cells. The assay can be described thus: Unfolded protein response markers (CHOP, XBP1, ATF6) by high throughput microscopy. It counts as cell-based, human. The note with it: 4OHT treated and control cells; FIGS. 13A-D. Here is the method: Immunofluorescence staining was carried out by first fixing wells of 96 well plate at desired timepoint for 1 hour using 4% PFA (w/v, in PBS) followed by washing 3 times with PBS. Wells were then permeabilized using 0.2% Triton® X-100 (v/v, PBS) for 10 min or with 0.5% Triton® X-100 (v/v, PBS) for COPI staining. Wells were then washed twice with PBS to halt permeabilization and then non-specific antibody binding blocked by incubation with a blocking solution for 1 hour at RT. Blocking solution contained 1% BSA (w/v, PBS) supplemented with 0.4% Fish Skin Gelatin (v/v, PBS). Primary antibodies were diluted in respective blocking solution (see ‘Antibodies’ for dilutions), blocking solution removed from well and incubated with primary antibody solution for 1 hour at RT. For BrdU staining primary antibody solution is supplemented with 0.5 U/ul DNase (Sigma) and 1 mM MgCl2 and incubation times reduced to 30 minutes. […]
High content image analysis was carried out using the InCell Investigator 2.7.3 software (GE Healthcare®). […] Quantification for nuclear staining was measured as average pixel intensity (grey scale) for the wavelength of fluorophore across the area of the nuclear mask. Cytoplasmic staining quantification was of either the average pixel intensity or the coefficient of variance of pixel intensities within collar area. […]

A short description of assay [2]: Blood markers (Vetscan) in a separate cohort of old mice. The class given is in vivo, female C57/BL6 mice. Conditions: ~19 mo females, before 4th round, Compound 2 10 mg/kg, Compound 3 25 mg/kg, versus vehicle. Here is the method: Blood was collected prior to each round of injection for physiological assessments. Mice were allowed to rest 4 weeks prior to being culled and organs collected for freezing in OCT, paraffin embedding and snap-freezing for RNA extraction.
For analysis of immune cell composition in whole blood, tail-vein blood was collected 2 days after last treatment. Whole blood was diluted in saline to a volume of […] and ran on a Sysmex XE2100 automated cell counter. Blood glucose levels were determined by collecting whole-blood from tail vein into heparinised tubes (Abraxis), 120-140 μL of whole-blood to be loaded onto a comprehensive diagnostic profile reagent rotor (Abraxis) and run on a VetScan VS2 Chemistry Analyzer (Abraxis: 500-7123).
Further experiments were performed on a separate cohort of old mice. […] This regimen was repeated 4 more times and blood was collected for Vetscan measurements prior to the 4th round of treatment (FIG. 19). At that stage, ~19 mo females presented elevated levels of ALT, amylase and glucose in blood when compared with young mice (FIG. 20A).

Structures are written as SMILES.

On to `Cc1nn(C)c(C)c1CCOc1c(-c2ccc3c(c2)c(CN(C)C)nn3C)ccc(F)c1F` [Compound 1, 1-(5-(3,4-difluoro-2-(2-(1,3,5-trimethyl-1H-pyrazol-4-yl)ethoxy)phenyl)-1-methyl-1H-indazol-3-yl)-N,N-dimethylmethanamine], for which the “UPR activation (nuclear CHOP, XBP1, ATF6; percentage of cells above threshold)” value in assay [1] is on record as “causes the induction of the unfolded protein response on senescent cells”.
`Cc1c(NS(=O)(=O)c2c(Cl)cc(-c3ccnc(N4CCNCC4)c3)cc2Cl)c(CC(C)C)nn1C` [Compound 2]: the ALT in blood entry in assay [2] (FIG. 20A) is “lower level”. In addition, the Amylase in blood entry in assay [2] (FIG. 20B) is recorded as “lower level”. Further, the Glucose in blood result in assay [2] (FIG. 20C) is reported as “lower level”. Moreover, in assay [1], the “UPR activation (nuclear CHOP, XBP1, ATF6; percentage of cells above threshold)” value is reported as “causes the induction of the unfolded protein response on senescent cells”.
